Reference: patent US20200411135A1, “Neoantigen Identification with Pan-Allele Models” (Gritstone Oncology, Inc., priority 2018, published 2020)
Peptide text beside a SMILES is read from it.

System: in vitro expanded PBMCs (neoantigen-reactive T-cells) from NSCLC patients
Assay: IFN-gamma ELISpot on in vitro stimulated (IVS) patient PBMCs with patient-specific neoantigen peptides and peptide pools
Type: cell-based, human
Conditions: patient PBMCs after 14 days IVS; >2-fold increase above DMSO background considered positive
Procedure: To do so, archival FFPE tumor biopsies and 5-30 ml of peripheral blood were analyzed from 9 patients with metastatic NSCLC undergoing anti-PD(L)1 therapy (Supplementary Table 1: Patient demographics and treatment information for N=9 patients studied in FIGS. 26A-C. Key fields include tumor stage and subtype, anti-PD1 therapy received, and summary of NGS results.). […] The full MS model was applied to prioritize 20 neoepitopes per patient for testing against pre-existing anti-tumor T-cell responses. To focus the analysis on likely CD8 responses, the prioritized peptides were synthesized as 8-11mer minimal epitopes (Methods), and then peripheral blood mononuclear cells (PBMCs) were cultured with the synthesized peptides in short in vitro stimulation (IVS) cultures to expand neoantigen-reactive T-cells (Supplementary Table 2). After two weeks the presence of antigen-specific T-cells was assessed using IFN-gamma ELISpot against the prioritized neoepitopes. In seven patients for whom sufficient PBMCs were available, separate experiments were also performed to fully or partially deconvolve the specific antigens recognized. The results are depicted in FIGS. 26A-C and 27A-30.
FIG. 26A depicts detection of T-cell responses to patient-specific neoantigen peptide pools for nine patients. For each patient, predicted neoantigens were combined into 2 pools of 10 peptides each according to model ranking and any sequence homologies (homologous peptides were separated into different pools). Then, for each patient, the in vitro expanded PBMCs for the patient were stimulated with the 2 patient-specific neoantigen peptide pools in IFN-gamma ELISpot. Data in FIG. 26A are presented as spot forming units (SFU) per […] plated cells with background (corresponding DMSO negative controls) subtracted. Responses of single wells (patients 1-038-001, CU02, CU03 and 1-050-001) or replicates with mean and standard deviation (all other patients) against cognate peptide pools #1 and #2 are shown for patients 1-038-001, 1-050-001, 1-001-002, CU04, 1-024-001, 1-024-002 and CU05. For patients CU02 and CU03, cell numbers allowed testing against specific peptide pool #1 only. Samples with values >2-fold increase above background were considered positive and are designated with a star (responsive donors include patients 1-038-001, CU04, 1-024-001, 1-024-002, and CU02). Unresponsive donors include patients 1-050-001, 1-001-002, CU05, and CU03. […] depicts photographs of ELISpot wells with in vitro expanded PBMCs from patient CU04, stimulated in IFN-gamma ELISpot with DMSO negative control, PHA positive control, CU04-specific neoantigen peptide pool #1, CU04-specific peptide 1, CU04-specific peptide 6, and CU04-specific peptide 8.
Pre-existing T-cells from healthy donor or patient samples were expanded in the presence of cognate peptides and IL-2 in a similar approach to that applied by Ott el al.^81 Briefly, thawed PBMCs were rested overnight and stimulated in the presence of peptide pools (10 μM per peptide, 10 peptides per pool) in ImmunoCult™-XF T-cell Expansion Medium ([…] Technologies) with 10 IU/ml rhIL-2 (R&D Systems Inc., Minneapolis, Minn.) for 14 days in 24-well tissue culture plates. Cells were seeded at 2×10^6 cells/well and fed every 2-3 days by replacing 2/3 of the culture media.
Detection of IFNγ-producing T-cells was performed by ELISpot assay^142. […]

SMILES | T-cell response / recognition in IFN-gamma ELISpot
CC[C@H](C)[C@H](NC(=O)[C@H](CC(N)=O)NC(=O)[C@H](CCC(=O)O)NC(=O)[C@@H](N)CC(=O)O)C(=O)N[C@H](C(=O)N[C@H](C(=O)N[C@H](C(=O)N[C@@H](CCC(N)=O)C(=O)N[C@@H](Cc1ccccc1)C(=O)O)[C@@H](C)CC)[C@@H](C)O)[C@@H](C)O (H-DENITTIQF-OH; N-terminus and C-terminus assumed) | peptide-specific T-cell response was deconvolved
CC(C)[C@H](NC(=O)[C@@H](NC(=O)[C@@H](N)CC(=O)O)[C@@H](C)O)C(=O)N[C@@H](CCC(=O)O)C(=O)N[C@@H](Cc1ccc(O)cc1)C(=O)N1CCC[C@H]1C(=O)N[C@@H](Cc1ccc(O)cc1)C(=O)N[C@H](C(=O)N[C@@H](CO)C(=O)N[C@@H](Cc1ccccc1)C(=O)O)[C@@H](C)O (H-DTVEYPYTSF-OH; N-terminus and C-terminus assumed) | peptide-specific T-cell response was deconvolved
CSCC[C@H](NC(=O)[C@@H](NC(=O)[C@H](CC(C)C)NC(=O)[C@@H](NC(=O)[C@H](C)NC(=O)[C@H](C)NC(=O)[C@H](CC(=O)O)NC(=O)[C@H](C)NC(=O)[C@@H](NC(=O)[C@@H](N)CCC(=O)O)C(C)C)[C@@H](C)O)[C@@H](C)O)C(=O)O (H-EVADAATLTM-OH; N-terminus and C-terminus assumed) | peptide-specific T-cell response was deconvolved
CC(C)C[C@H](NC(=O)[C@@H](NC(=O)[C@H](CC(=O)O)NC(=O)[C@@H](NC(=O)[C@H](CC(=O)O)NC(=O)[C@H](CCCCN)NC(=O)[C@H](CCCCN)NC(=O)[C@@H](NC(=O)CN)[C@@H](C)O)C(C)C)C(C)C)C(=O)N[C@@H](CCCCN)C(=O)O (H-GTKKDVDVLK-OH; N-terminus and C-terminus assumed) | recognized by CD8 T-cells
CC(C)[C@H](NC(=O)[C@H](CCC(N)=O)NC(=O)[C@@H](NC(=O)[C@H](CO)NC(=O)[C@@H](NC(=O)[C@H](CC(=O)O)NC(=O)[C@@H](N)CCC(N)=O)C(C)C)C(C)C)C(=O)N[C@@H](CCC(=O)O)C(=O)N[C@@H](CCCNC(=N)N)C(=O)O (H-QDVSVQVER-OH; N-terminus and C-terminus assumed) | peptide-specific T-cell response was deconvolved
